Data published in patent publication US20150038471A1, “PROCESS FOR PREVENTING OR MITIGATING BIOFOULING” (Baker Hughes Incorporated, priority 2010, published 2015).

Key:
Type in all cases: cell-based
[1] = test system: sulfate-reducing bacteria (SRB); test: SRB surviving 3 h treatment, serial dilution enumeration (NACE TMO 194-2004)
From the text: Following the treatment, an aliquot of each sample was serially diluted (10-fold dilutions) into culture media for SRB to enumerate the survivors according to NACE TMO 194-2004.

[2] = test system: bacterial-fouled water taken from an oil production site; test: Turbidity of bacterial-fouled oilfield water culture in synthetic brine; conditions: 600 nm after 24 hours
Protocol: A sample of a bacterial-fouled water was taken from an oil production site and used as a culture base for testing of cinnamaldehyde as a bactericide. The culture was introduced into a synthetic brine (similar to that used for oilfield operations) and turbidity was measure at 600 nm after 24 hours.

[3] = test system: acid-producing bacteria (APB); test: Mitigation of APB growth in seawater, dilution series bottles; conditions: 600 ppm product; seawater 3% TDS; contact 20 hours; three replicate columns
Protocol: Various biocidal blends with only 50% THPS, only XC800, and different mixtures were tested, along with a control, at preventing or mitigating APB growth. The media was seawater with 3% total dissolved solids (TDS). Contact times were 20 hours and the reaction volume was 50 ml, using 8 bottles per dilution series string. APB growth was measured from 0 to 4 in logarithmic units.
In FIG. 1, it is expected that the mitigation of APB growth would generally follow a straight line (dashed in FIG. 1) from 600 ppm THPS (50%) to 600 ppm XC800.

Compound: O=CC=Cc1ccccc1 [Cinnamaldehyde, cinnamaldehyde]
- SRB Surviving Treatment ([1]; THPS 0 ppm, cinnamaldehyde 25 ppm): ≧10^10 SRB/ml
- SRB Surviving Treatment ([1]; THPS 0 ppm, cinnamaldehyde 50 ppm): ≧10^10 SRB/ml
- Turbidity ([2]; cinnamaldehyde 50 ppm): 1.854
- Turbidity ([2]; cinnamaldehyde 125 ppm): 0.973
- Turbidity ([2]; cinnamaldehyde 250 ppm): 0.175
- Turbidity ([2]; cinnamaldehyde 375 ppm): 0.103
- Turbidity ([2]; cinnamaldehyde 500 ppm): 0.113

Compound: tetrakis hydroxymethyl phosphonium sulfate [50% THPS only]
- APB growth (0 to 4) [3]: 1 logarithmic units

Compound: tetrakis hydroxymethyl phosphonium sulfate [THPS]
- SRB Surviving Treatment ([1]; THPS 50 ppm, cinnamaldehyde 0 ppm): ≧10^10 SRB/ml
- SRB Surviving Treatment ([1]; THPS 100 ppm, cinnamaldehyde 0 ppm): ≧10^10 SRB/ml
- SRB Surviving Treatment ([1]; THPS 250 ppm, cinnamaldehyde 0 ppm): 10^5 SRB/ml
